Laboratory results published in the supplement of paper PMC10307832.

How the values were obtained:
Assay in all cases: relative viability (nuclei count vs DMSO), 5 days (fraction); higher = more cells survive
[1] = compound: O=C(Nc1cccc(C(F)(F)F)c1)Nc1cc(S(=O)(=O)NC2CC2)ccc1-c1ccsc1 [AGI-6780]
In short: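 Following overnight incubation at 37 °C, lung cancer cell lines in 1536-well plates were pinned with five library-drug doses (not always all listed) in √10 steps on vehicle-anchored plates. The cells then spent 5 days without medium change before a combined fix, permeabilisation and Hoechst stain, 4× imaging and MetaXpress nuclear counts. Viability is the treated-to-vehicle ratio of nuclei, taken as the median across plates. Only plates with control CV below 25% and at least one doubling passed.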

[2] = compound: O=C(Nc1cccc(C(F)(F)F)c1)Nc1cc(S(=O)(=O)NC2CC2)ccc1-c1ccsc1 [AGI-6780] + CC(=O)Nc1cccc(-n2c(=O)n(C3CC3)c(=O)c3c(Nc4ccc(I)cc4F)n(C)c(=O)c(C)c32)c1 [Trametinib] (partner 0.02 µM)
In short: (§1)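 Relative viability divides the nuclei count in treated wells by that in vehicle wells. Lung cancer cell lines were seeded in 1536-well plates, dosed by pin tool the next day, and fixed and stained after 5 days in one step with final 0.05% Triton X-100, 1% formaldehyde and 1 ug/ml Hoechst. Dosing was a single drug or a fixed anchor-drug dose plus five library-drug doses (not always all listed) in √10 steps, and values are medians of duplicate plates imaged at 4×.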

[3] = compound: O=C(Nc1cccc(C(F)(F)F)c1)Nc1cc(S(=O)(=O)NC2CC2)ccc1-c1ccsc1 [AGI-6780] + CC(=O)c1c(C)c2cnc(Nc3ccc(N4CCNCC4)cn3)nc2n(C2CCCC2)c1=O [Palbociclib] (partner 0.5 µM)
In short: as §1

[4] = compound: O=C(Nc1cccc(C(F)(F)F)c1)Nc1cc(S(=O)(=O)NC2CC2)ccc1-c1ccsc1 [AGI-6780] + CCNC(=O)c1noc(-c2cc(C(C)C)c(O)cc2O)c1-c1ccc(CN2CCOCC2)cc1 [Luminespib] (partner 0.01 µM)
In short: as §1

[5] = compound: O=C(Nc1cccc(C(F)(F)F)c1)Nc1cc(S(=O)(=O)NC2CC2)ccc1-c1ccsc1 [AGI-6780] + COc1cc2c(Oc3ccc(NC(=O)C4(C(=O)Nc5ccc(F)cc5)CC4)cc3F)ccnc2cc1OCCCN1CCOCC1 [Foretinib] (partner 0.25 µM)
In short: as §1

[6] = compound: O=C(Nc1cccc(C(F)(F)F)c1)Nc1cc(S(=O)(=O)NC2CC2)ccc1-c1ccsc1 [AGI-6780] + COc1cccc2cc(-c3nc([C@H]4CC[C@H](C(=O)O)CC4)n4ncnc(N)c34)[nH]c12 [OSI-027] (partner 0.5 µM)
In short: as §1

[7] = compound: O=C(Nc1cccc(C(F)(F)F)c1)Nc1cc(S(=O)(=O)NC2CC2)ccc1-c1ccsc1 [AGI-6780] + Cc1cc(Nc2cc(N3CCN(C)CC3)nc(Sc3ccc(NC(=O)C4CC4)cc3)n2)n[nH]1 [Tozasertib] (partner 0.1 µM)
In short: as §1

[8] = compound: O=C(Nc1cccc(C(F)(F)F)c1)Nc1cc(S(=O)(=O)NC2CC2)ccc1-c1ccsc1 [AGI-6780] + Cc1nc(Nc2ncc(C(=O)Nc3c(C)cccc3Cl)s2)cc(N2CCN(CCO)CC2)n1 [Dasatinib] (partner 0.075 µM)
In short: as §1

[9] = compound: O=C(Nc1cccc(C(F)(F)F)c1)Nc1cc(S(=O)(=O)NC2CC2)ccc1-c1ccsc1 [AGI-6780] + N=C(N)NC(=N)NCCc1ccccc1 [Phenformin] (partner 250 µM)
In short: as §1

[10] = compound: O=C(Nc1cccc(C(F)(F)F)c1)Nc1cc(S(=O)(=O)NC2CC2)ccc1-c1ccsc1 [AGI-6780] + NC(=O)Nc1cc(-c2cccc(F)c2)sc1C(=O)N[C@H]1CCCNC1 [AZD7762] (partner 0.2 µM)
In short: as §1

[11] = compound: O=C(Nc1cccc(C(F)(F)F)c1)Nc1cc(S(=O)(=O)NC2CC2)ccc1-c1ccsc1 [AGI-6780] + Nc1nc2[nH]cc(CCc3ccc(C(=O)N[C@@H](CCC(=O)O)C(=O)O)cc3)c2c(=O)[nH]1 [Pemetrexed] (partner 0.2 µM)
In short: as §1

[12] = compound: O=C(Nc1cccc(C(F)(F)F)c1)Nc1cc(S(=O)(=O)NC2CC2)ccc1-c1ccsc1 [AGI-6780] + Nc1ncn([C@H]2C[C@H](O)[C@@H](CO)O2)c(=O)n1 [Decitabine] (partner 2 µM)
In short: as §1

[13] = compound: O=C(Nc1cccc(C(F)(F)F)c1)Nc1cc(S(=O)(=O)NC2CC2)ccc1-c1ccsc1 [AGI-6780] + O=C(CCCCCCC(=O)Nc1ccccc1)NO [Vorinostat] (partner 1 µM)
In short: as §1

[14] = compound: O=C(Nc1cccc(C(F)(F)F)c1)Nc1cc(S(=O)(=O)NC2CC2)ccc1-c1ccsc1 [AGI-6780] + O=C(c1cc(Cc2n[nH]c(=O)c3ccccc23)ccc1F)N1CCN(C(=O)C2CC2)CC1 [Olaparib] (partner 8 µM)
In short: as §1

SW 900
relative viability ([1]; 0.08 µM): 0.858 | relative viability ([1]; 0.253 µM): 0.868 | relative viability ([1]; 0.8 µM): 1.08 | relative viability ([1]; 2.53 µM): 0.901 | relative viability ([1]; 8 µM): 0.935 | relative viability ([2]; first compound 0.08 µM): 1.01 | relative viability ([2]; first compound 0.253 µM): 0.832 | relative viability ([2]; first compound 0.8 µM): 0.915 | relative viability ([2]; first compound 2.53 µM): 0.688 | relative viability ([2]; first compound 8 µM): 1.18 | relative viability ([3]; first compound 0.08 µM): 0.629 | relative viability ([3]; first compound 0.253 µM): 0.527 | relative viability ([3]; first compound 0.8 µM): 0.496 | relative viability ([3]; first compound 2.53 µM): 0.566 | relative viability ([3]; first compound 8 µM): 0.552 | relative viability ([4]; first compound 0.08 µM): 0.167 | relative viability ([4]; first compound 0.253 µM): 0.17 | relative viability ([4]; first compound 0.8 µM): 0.163 | relative viability ([4]; first compound 2.53 µM): 0.185 | relative viability ([4]; first compound 8 µM): 0.176 | relative viability ([5]; first compound 0.08 µM): 0.953 | relative viability ([5]; first compound 0.253 µM): 0.763 | relative viability ([5]; first compound 0.8 µM): 1.03 | relative viability ([5]; first compound 2.53 µM): 0.81 | relative viability ([5]; first compound 8 µM): 0.917 | relative viability ([6]; first compound 0.08 µM): 0.649 | relative viability ([6]; first compound 0.253 µM): 0.684 | relative viability ([6]; first compound 0.8 µM): 0.811 | relative viability ([6]; first compound 2.53 µM): 0.415 | relative viability ([6]; first compound 8 µM): 0.741 | relative viability ([7]; first compound 0.08 µM): 0.526 | relative viability ([7]; first compound 0.253 µM): 0.52 | relative viability ([7]; first compound 0.8 µM): 0.644 | relative viability ([7]; first compound 2.53 µM): 0.473 | relative viability ([7]; first compound 8 µM): 0.512 | relative viability ([8]; first compound 0.08 µM): 0.542 | relative viability ([8]; first compound 0.253 µM): 0.675 | relative viability ([8]; first compound 0.8 µM): 0.555 | relative viability ([8]; first compound 2.53 µM): 0.587 | relative viability ([8]; first compound 8 µM): 0.571 | relative viability ([9]; first compound 0.08 µM): 0.547 | relative viability ([9]; first compound 0.253 µM): 0.737 | relative viability ([9]; first compound 0.8 µM): 0.673 | relative viability ([9]; first compound 2.53 µM): 0.597 | relative viability ([9]; first compound 8 µM): 0.809 | relative viability ([10]; first compound 0.08 µM): 0.657 | relative viability ([10]; first compound 0.253 µM): 0.676 | relative viability ([10]; first compound 0.8 µM): 0.811 | relative viability ([10]; first compound 2.53 µM): 0.557 | relative viability ([10]; first compound 8 µM): 0.634 | relative viability ([11]; first compound 0.08 µM): 0.461 | relative viability ([11]; first compound 0.253 µM): 0.484 | relative viability ([11]; first compound 0.8 µM): 0.457 | relative viability ([11]; first compound 2.53 µM): 0.524 | relative viability ([11]; first compound 8 µM): 0.469 | relative viability ([12]; first compound 0.08 µM): 0.454 | relative viability ([12]; first compound 0.253 µM): 0.454 | relative viability ([12]; first compound 0.8 µM): 0.386 | relative viability ([12]; first compound 2.53 µM): 0.413 | relative viability ([12]; first compound 8 µM): 0.445 | relative viability ([13]; first compound 0.08 µM): 0.485 | relative viability ([13]; first compound 0.253 µM): 0.484 | relative viability ([13]; first compound 0.8 µM): 0.707 | relative viability ([13]; first compound 2.53 µM): 0.548 | relative viability ([13]; first compound 8 µM): 0.586 | relative viability ([14]; first compound 0.08 µM): 0.741 | relative viability ([14]; first compound 0.253 µM): 0.826 | relative viability ([14]; first compound 0.8 µM): 0.923 | relative viability ([14]; first compound 2.53 µM): 0.878 | relative viability ([14]; first compound 8 µM): 0.803
